Source: article PMC3965853 (Cancer chemotherapy and pharmacology, 2014)
Values joined by “and” are separate entries in the source; they are usually repeats but may differ in a detail not shown here. Identical values can stand only once. “Also recorded” adds a separate entry of the source.

What was measured:
[1] = 30 min iv infusion days 1 to 5 of 21-day cycle, with 150 mg oral erlotinib daily
refractory solid tumors = assay: Antitumor response assessment; format: in vivo, patients
[2] = Topotecan pharmacokinetics in plasma and urine without and with erlotinib; format: in vivo, patients; settings: for CLrenal, Mean (SD) / CLrenal, Median / CLrenal, Range / CL, Mean (SD) / CL, Median / CL, Range / Dosage-normalized AUC, Range: total topotecan; for CLrenal, Mean (SD) / CLrenal, Median / CLrenal, Range: n 13; for CL, Mean (SD) / CL, Median / CL, Range / Dosage-normalized AUC, Range: n 19
[3] = tested on: relapsed/refractory ovarian cancer; settings: topotecan and lapatinib, 35 patients evaluable; cited from earlier work
[4] = tested on: platinum refractory/resistant ovarian cancer; settings: lapatinib in combination with topotecan, group of 18 patients; cited from earlier work
[5] = all patients n = 28, topotecan + erlotinib 150 mg
[6] = topotecan 0.75 mg/m^2 + erlotinib 150 mg, n = 8
[7] = topotecan 1.0 mg/m^2 + erlotinib 150 mg, n = 14
[8] = topotecan 1.25 mg/m^2 + erlotinib 150 mg, n = 6

CC[C@@]1(O)C(=O)OCc2c1cc1n(c2=O)Cc2cc3c(CN(C)C)c(O)ccc3nc2-1 [topotecan]
maximum tolerated dosage (MTD) of topotecan [1]: 1.0 mg/m^2
Best overall response: Complete response, % of patients (refractory solid tumors; [5]): 0%
Best overall response: Not evaluable, % of patients (refractory solid tumors; [5]): 21.4%
Best overall response: Not evaluable, No. of Patients (refractory solid tumors; [5]): 6
Best overall response: Partial response, % of patients (refractory solid tumors; [5]): 7% and 7.1%
Best overall response: Progressive disease, % of patients (refractory solid tumors; [5]): 29% and 28.6%
Best overall response: Progressive disease, No. of Patients (refractory solid tumors; [5]): 8
Best overall response: Stable disease, % of patients (refractory solid tumors; [5]): 42.9%
Best overall response: Stable disease, No. of Patients (refractory solid tumors; [5]): 12
Best overall response: Complete response, No. of Patients (refractory solid tumors; [6]): 0
Best overall response: Not evaluable, No. of Patients (refractory solid tumors; [6]): 1
Best overall response: Partial response, No. of Patients (refractory solid tumors; [6]): 0
Best overall response: Progressive disease, No. of Patients (refractory solid tumors; [6]): 4
Best overall response: Stable disease, No. of Patients (refractory solid tumors; [6]): 3
Best overall response: Complete response, No. of Patients (refractory solid tumors; [7]): 0
Best overall response: Not evaluable, No. of Patients (refractory solid tumors; [7]): 4
Best overall response: Partial response, No. of Patients (refractory solid tumors; [7]): 1
Best overall response: Progressive disease, No. of Patients (refractory solid tumors; [7]): 4
Best overall response: Stable disease, No. of Patients (refractory solid tumors; [7]): 5
Best overall response: Complete response, No. of Patients (refractory solid tumors; [8]): 0
Best overall response: Not evaluable, No. of Patients (refractory solid tumors; [8]): 1
Best overall response: Partial response, No. of Patients (refractory solid tumors; [8]): 1
Best overall response: Progressive disease, No. of Patients (refractory solid tumors; [8]): 0
Best overall response: Stable disease, No. of Patients (refractory solid tumors; [8]): 4
CLrenal, Mean (SD) ([2]; Cycle 1 (without erlotinib)): 4.95 (2.38) L/h/m^2
CLrenal, Median ([2]; Cycle 1 (without erlotinib)): 4.61 L/h/m^2
CLrenal, Range ([2]; Cycle 1 (without erlotinib)): 1.29–9.12 L/h/m^2
CL, Mean (SD) ([2]; Cycle 1 (without erlotinib)): 9.41 (3.40) L/h/m^2
CL, Median ([2]; Cycle 1 (without erlotinib)): 8.55 L/h/m^2
CL, Range ([2]; Cycle 1 (without erlotinib)): 4.11–14.7 L/h/m^2
Dosage-normalized AUC, Range ([2]; Cycle 1 (without erlotinib)): 35.1 to 142 ng·h/mL
CLrenal, Mean (SD) ([2]; Cycle 2/3 (with erlotinib)): 4.07 (1.87) L/h/m^2
CLrenal, Median ([2]; Cycle 2/3 (with erlotinib)): 3.84 L/h/m^2
CLrenal, Range ([2]; Cycle 2/3 (with erlotinib)): 1.04–7.04 L/h/m^2
CL, Mean (SD) ([2]; Cycle 2/3 (with erlotinib)): 8.60 (3.04) L/h/m^2
CL, Median ([2]; Cycle 2/3 (with erlotinib)): 8.57 L/h/m^2
CL, Range ([2]; Cycle 2/3 (with erlotinib)): 3.56–14.6 L/h/m^2
Dosage-normalized AUC, Range ([2]; Cycle 2/3 (with erlotinib)): 51.4 to 237.2 ng·h/mL
mean (terminal) clearance of topotecan, lower in Cycle 2/3 compared to Cycle 1 ([2]; with erlotinib vs without, p = 0.17): 8.6%
mean renal clearance of topotecan, decrease in Cycle 2/3 compared to Cycle 1 ([2]; with erlotinib vs without, p = 0.21): 17.8%
mean dosage-normalized AUC of topotecan, higher in Cycle 2/3 than in Cycle 1 ([2]; with erlotinib vs without, p = 0.45): 8.0%

CS(=O)(=O)CCNCc1ccc(-c2ccc3ncnc(Nc4ccc(OCc5cccc(F)c5)c(Cl)c4)c3c2)o1 [lapatinib]
disease stabilization, patients [3]: 12
partial response, patients [3]: Five patients
partial response, patients [4]: One partial response
patients deriving clinical benefit [4]: three patients

C#Cc1cccc(Nc2ncnc3cc(OCCOC)c(OCCOC)cc23)c1 [erlotinib]
effect of erlotinib on topotecan clearance / disposition ([2]; erlotinib 150 mg daily, oral): does not affect the disposition of topotecan to a clinically significant extent; also recorded: did not have a clinically significant effect on topotecan clearance or exposure; also recorded: no significant effect on topotecan systemic clearance
